# Source: patent publication US20250188079A1, “INHIBITING CYCLIC AMP-RESPONSIVE ELEMENT-BINDING PROTEIN (CREB)” (Forma Therapeutics, Inc., priority 2019, published 2025)
# Target: CBP (Homo sapiens (Human), UniProt Q92793)
# Assay: HTRF biochemical assay for CBP activity (TR-FRET, bromodomain)
# Format: binding
# Conditions: geometric mean, 10-point 3-fold dilution 33 μM to 1.7 nM, read-out: BROMO IC50 TRF TB CBP (μM gmean)
# Outline: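 Compounds were tested as 10-point, 3-fold dilutions (33 μM to 1.7 nM final) against CBP protein and peptide ligand in pH 7.5 Hepes buffer with GSH, BGG, BSA and Triton X-100 at room temperature for varying times. The TR-FRET 520/490 ratio gave % inhibition versus no-enzyme and DMSO controls, and IC50 came from 4-parameter logistic fits.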
# Sequence of CBP (Q92793 1085-1192): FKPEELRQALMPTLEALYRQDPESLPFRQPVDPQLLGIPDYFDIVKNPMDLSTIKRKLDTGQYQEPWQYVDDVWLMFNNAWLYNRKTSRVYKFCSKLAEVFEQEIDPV
row,Structure (SMILES),IC50 [µM]
1,COC(=O)N1CCc2ccc3c(nc([C@H]4CC[C@H](C(=O)O)CC4)n3[C@@H](C)Cc3ccc(OC(F)F)cc3)c2C1 [Compound 69],0.001 to 0.01
2,COC(=O)N1CCc2ccc3c(nc(C4CCCCC4)n3[C@H](C)C[C@H]3CCCC[C@H]3C(=O)O)c2C1 [Compound 239],0.01 to 0.1
3,COC(=O)N1CCc2ccc3c(nc([C@H]4CCC[C@H](C(=O)O)C4)n3Cc3cccc(OC)n3)c2C1 [Compound 277],0.01 to 0.1
4,COC(=O)N1CCc2ccc3c(nc([C@H]4CCCOC4)n3C[C@@H](C(=O)O)c3ccccc3)c2C1 [Compound 61],0.001 to 0.01
5,COC(=O)N1CCc2ccc3c(nc(N4CCNCC4)n3[C@H](C)Cc3ccccc3)c2C1 [Compound 347],1 to 1000
6,COC(=O)N1CCc2ccc3c(nc(C4CCCCC4)n3C[C@@H](CC(=O)O)c3cc(F)cc(OC)c3)c2C1 [Compound 35],0.001 to 0.01
7,"COC(=O)N1CCc2ccc3c(nc(N4CCC(C(=O)O)CC4)n3[C@@H](C)Cc3ccc(F)c(F)c3)c2C1 (single isomer, unassigned) [Compound 23]",0.001 to 0.01
8,COC(=O)N1CCc2ccc3c(nc([C@H]4CC[C@H](C(=O)O)CC4)n3[C@@H](C)Cc3ccccc3F)c2C1 [Compound 314],0.1 to 1
9,COC(=O)N1CCc2ccc3c(nc(C4CCCCC4)n3CCc3ccc(F)c(C(=O)O)c3)c2C1 [Compound 160],0.001 to 0.01
10,COC(=O)N1CCc2ccc3c(nc(N4CCNCC4)n3[C@@H](C)Cc3ccccc3)c2C1 [Compound 198],0.01 to 0.1
11,COC(=O)N1CCc2ccc3c(nc(C4CCCCC4)n3CCc3cccc(C(=O)O)c3)c2C1 [Compound 105],0.001 to 0.01
12,"COC(=O)N1CCc2ccc3c(nc([C@H]4CC[C@H](C(=O)O)CC4)n3[C@H](C)Cc3ccc(C)c(F)c3)c2C1 (single isomer, unassigned) [Compound 283]",0.01 to 0.1
13,COC(=O)N1CCc2c(Cl)cc3c(nc([C@H]4CC[C@H](C(=O)O)CC4)n3CCc3ccccc3)c2C1 [Compound 154],0.001 to 0.01
14,COC(=O)N1CCc2ccc3c(nc(N4CCC[C@H](C(=O)O)C4)n3[C@H](C)Cc3ccccc3)c2C1 [Compound 339],0.1 to 1
15,COC(=O)N1CCc2ccc3c(nc([C@H]4CC[C@@H](C(=O)O)CC4)n3CCc3ccccc3)c2C1 [Compound 336],0.1 to 1
16,"COC(=O)N1CCc2ccc3c(nc([C@H]4CCC[C@@H](C(=O)O)C4)n3[C@H](C)Cc3ccccc3)c2C1 (single isomer, unassigned) [Compound 12]",0.001 to 0.01
17,COC(=O)N1CCc2ccc3c(nc([C@H]4CC[C@H](C(=O)O)CC4)n3[C@@H](C)Cc3cccc(F)c3F)c2C1 [Compound 71],0.001 to 0.01
18,COC(=O)N1CCc2ccc3c(nc([C@H]4CC[C@H](C(=O)O)CC4)n3[C@H](C)C[C@]3(C)CC[C@@H](OC)CC3)c2C1 [Compound 267],0.01 to 0.1
19,COC(=O)N1CCc2ccc3c(nc([C@H]4CC[C@H](C(=O)O)CC4)n3[C@H](C)Cn3ncc4ccccc43)c2C1 [Compound 311],0.1 to 1
20,COC(=O)N1CCc2ccc3c(nc(C4CCCCC4)n3C[C@@H](CC(=O)O)c3ccc(F)c(F)c3)c2C1 [Compound 21],0.001 to 0.01
21,COC(=O)N1CCc2ccc3c(nc([C@@H]4CCC[C@@H](C(=O)O)C4)n3CC[C@H]3CC[C@@H](OC)CC3)c2C1 [Compound 215],0.01 to 0.1

row,Structure (SMILES),IC50 [µM]
1,COC(=O)N1CCc2cc(CC#N)c3c(nc([C@H]4CC[C@H](C(=O)O)CC4)n3CCc3ccccc3)c2C1 [Compound 118],0.001 to 0.01
2,COC(=O)N1CCc2ccc3c(nc([C@H]4CC[C@](C)(C(=O)O)CC4)n3[C@H](C)Cn3cc(Cl)cn3)c2C1 [Compound 309],0.1 to 1
3,COC(=O)N1CCc2ccc3c(nc([C@H]4CC[C@@H](OC)CC4)n3C[C@H](C(=O)O)c3ccccc3)c2C1 [Compound 250],0.01 to 0.1
4,COC(=O)N1CCc2ccc3c(nc([C@H]4CC[C@H](C(=O)O)CC4)n3[C@@H](C)C[C@H]3CCCOC3)c2C1 [Compound 296],0.1 to 1
5,COC(=O)N1CCc2ccc3c(nc(-c4ccccn4)n3[C@H](C)Cc3ccccc3)c2C1 [Compound 304],0.1 to 1
6,COC(=O)N1CCc2ccc3c(nc(-c4ccc(C(=O)O)cc4)n3[C@@H](C)Cc3ccccc3)c2C1 [Compound 77],0.001 to 0.01
7,COC(=O)N1CCc2ccc3c(nc([C@H]4CCC[C@H](C(=O)O)C4)n3[C@H](C)Cc3ccccc3)c2C1 [Compound 344],0.1 to 1
8,COC(=O)N1CCc2ccc3c(nc(C4CCCCC4)n3CC[C@H]3CC[C@H](C(=O)O)CC3)c2C1 [Compound 243],0.01 to 0.1
9,COC(=O)N1CCc2ccc3c(nc(C4CCCCC4)n3C[C@@H]3CCCC[C@@H]3C(=O)O)c2C1 [Compound 195],0.01 to 0.1
10,COC(=O)N1CCc2ccc3c(nc(C4CCC(C(=O)O)CC4)n3CCc3ccccc3)c2C1 (stereo not drawn) [Compound 84],0.001 to 0.01
11,COC[C@H](Cc1ccccc1)n1c2ccc3c(c2nc1[C@H]1CC[C@H](C(=O)O)CC1)CN(C(=O)OC)CC3 [Compound 299],0.1 to 1
12,COC(=O)N1CCc2c(C#N)cc3c(nc([C@H]4CC[C@H](C(=O)O)CC4)n3[C@H](C)Cc3ccccc3)c2C1 [Compound 269],0.01 to 0.1
13,COC(=O)N1CCc2ccc3c(nc([C@H]4CCC[C@H](C(=O)O)C4)n3Cc3ccc(OC(F)F)cc3)c2C1 [Compound 209],0.01 to 0.1
14,COC(=O)N1CCc2ccc3c(nc(C4CCN(C(=O)O)CC4)n3[C@H](C)Cc3ccccc3)c2C1 [Compound 134],0.001 to 0.01
15,COC(=O)N1CCc2ccc3c(nc(C4CS(=O)(=O)C4)n3CCc3ccccc3)c2C1 [Compound 342],0.1 to 1
16,COC(=O)N1CCc2ccc3c(nc([C@H]4CC[C@@](C)(C(=O)O)CC4)n3[C@@H](C)Cc3ccccc3)c2C1 [Compound 49],0.001 to 0.01
17,COC(=O)N1CCc2ccc3c(nc(C4CCN(C(C)=O)CC4)n3C[C@@H](C(=O)O)c3ccccc3)c2C1 [Compound 62],0.001 to 0.01
18,COC(=O)N1CCc2ccc3c(nc([C@H]4CC[C@@H](S(=O)(=O)NC(C)=O)CC4)n3[C@H](C)Cc3ccccc3)c2C1 [Compound 162],0.001 to 0.01
19,COC(=O)N1CCc2ccc3c(nc(C4CCCCC4)n3C[C@@H]3CCCC[C@H]3C(=O)O)c2C1 [Compound 227],0.01 to 0.1
20,COC(=O)N1Cc2c(ccc3c2nc(C2CCCCC2)n3CCc2ccccc2)C[C@H]1C [Compound 232],0.01 to 0.1
21,COC(=O)N1CCc2ccc3c(nc(C4CCCCC4)n3[C@@H](C)C[C@H]3CCCC[C@H]3C(=O)O)c2C1 [Compound 204],0.01 to 0.1

row,Structure (SMILES),IC50 [µM]
1,COC(=O)N1CCc2ccc3c(nc(C4CCCCC4)n3C[C@@H](CC(=O)O)c3ccccc3C)c2C1 [Compound 98],0.001 to 0.01
2,COC(=O)N1CCc2ccc3c(nc(-c4cccc(CC(=O)O)c4)n3[C@@H](C)Cn3cc(Cl)cn3)c2C1 [Compound 113],0.001 to 0.01
3,COC(=O)N1CCc2c(C#N)cc3c(nc([C@H]4CC[C@H](C(=O)O)CC4)n3CCc3ccccc3)c2C1 [Compound 121],0.001 to 0.01
4,"COC(=O)N1CCc2ccc3c(nc([C@@H]4CCC[C@@H](C(=O)O)C4)n3[C@H](C)Cc3ccccc3C)c2C1 (single isomer, unassigned) [Compound 284]",0.01 to 0.1
5,COC(=O)N1CCc2ccc3c(nc([C@H]4CC[C@H](C(=O)O)CC4)n3CC(F)(F)c3ccccc3)c2C1 [compound 145],0.001 to 0.01
6,COC(=O)N1CCc2ccc3c(nc([C@H]4CC[C@@H](C(=O)O)CC4)n3CC(NC(C)=O)c3ccccc3)c2C1 (stereo partly drawn) [Compound 248],0.01 to 0.1
7,"COC(=O)N1CCc2ccc3c(nc(C4CCCCC4)n3C[C@@H](C(=O)O)c3cc(F)c(C)cc3OC)c2C1 (single isomer, unassigned) [Compound 278]",0.01 to 0.1
8,COC(=O)N1CCc2ccc3c(nc([C@H]4CC[C@H](C(=O)O)CC4)n3[C@@H](C)Cc3cnccn3)c2C1 [Compound 186],0.01 to 0.1
9,COC(=O)N1CCc2ccc3c(nc([C@H]4CC[C@H](C(=O)O)CC4)n3[C@@H](C)C[C@H]3CC[C@@H](OC)CC3)c2C1 [Compound 220],0.01 to 0.1
10,COC(=O)N1CCc2ccc3c(nc(C4CCNCC4)n3CCc3ccccc3)c2C1 [Compound 345],0.1 to 1
11,COC(=O)N1CCc2ccc3c(nc(N4CCC(C(=O)CO)CC4)n3[C@H](C)Cc3ccccc3)c2C1 [Compound 313],0.1 to 1
12,COC(=O)N1CCc2ccc3c(nc(-c4cccc(CC(=O)O)c4)n3[C@H](C)Cc3cc(F)cc(F)c3)c2C1 [Compound 322],0.1 to 1
13,COC(=O)N1CCc2c([C@@H]3CCOC3)cc3c(nc([C@H]4CC[C@H](C(=O)O)CC4)n3[C@H](C)Cc3ccccc3)c2C1 [Compound 44],0.001 to 0.01
14,COC(=O)N1CCc2ccc3c(nc(C4CCN(S(=O)(=O)NC(C)=O)CC4)n3[C@@H](C)Cc3ccccc3)c2C1 [Compound 178],0.01 to 0.1
15,COC(=O)N1CCc2ccc3c(nc(C4CCCCC4)n3C[C@@](C)(C(=O)O)c3ccccc3)c2C1 [Compound 150],0.001 to 0.01
16,"COC(=O)N1CCc2ccc3c(nc([C@@H]4CCC[C@@H](C(=O)O)C4)n3[C@@H](C)Cc3ccccc3Cl)c2C1 (single isomer, unassigned) [Compound 20]",0.001 to 0.01
17,COC(=O)N1CCc2ccc3c(nc(N4CCC(C(=O)O)CC4)n3[C@@H](C)Cn3cc(Cl)cn3)c2C1 [Compound 73],0.001 to 0.01
18,COC(=O)N1CCc2ccc3c(nc([C@H]4CC[C@H](C(=O)O)CC4)n3[C@@H](C)Cc3ccc4c(c3)CCO4)c2C1 [Compound 65],0.001 to 0.01
19,COC(=O)N1CCc2cc(C(=O)O)c3c(nc(C4CCCCC4)n3CCc3ccccc3)c2C1 [Compound 181],0.01 to 0.1
20,"COC(=O)N1CCc2ccc3c(nc(C4CCCCC4)n3C[C@H](C(=O)NS(C)(=O)=O)c3ccccc3)c2C1 (single isomer, unassigned) [Compound 22]",0.001 to 0.01
21,"COC(=O)N1CCc2ccc3c(nc([C@H]4CC[C@H](C(=O)NS(C)(=O)=O)CC4)n3[C@H](C)Cc3ccccc3)c2C1 (single isomer, unassigned) [Compound 290]",0.1 to 1
